pEC50: −log10 of the molar value.
Each compound was assayed against human APJ receptor (Homo sapiens (Human), UniProt P35414) (assay: [35S]GTPγS binding assay on membranes from CHO cells stably expressing human APJ receptor). Settings: means of several independent experiments, read-out: Activity hAPJ SPA EC50 IP.
Format: biochemical
Summary of the method: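 Membranes from CHO cells stably expressing FLAG-tagged human APJ incubated with [35S]GTPγS in buffer with optimized GDP, MgCl2 and NaCl levels, 90 min at RT. Signal read by imaging; EC50 by non-linear regression from means of several independent experiments.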

Sequence of human APJ receptor (P35414 whole entry): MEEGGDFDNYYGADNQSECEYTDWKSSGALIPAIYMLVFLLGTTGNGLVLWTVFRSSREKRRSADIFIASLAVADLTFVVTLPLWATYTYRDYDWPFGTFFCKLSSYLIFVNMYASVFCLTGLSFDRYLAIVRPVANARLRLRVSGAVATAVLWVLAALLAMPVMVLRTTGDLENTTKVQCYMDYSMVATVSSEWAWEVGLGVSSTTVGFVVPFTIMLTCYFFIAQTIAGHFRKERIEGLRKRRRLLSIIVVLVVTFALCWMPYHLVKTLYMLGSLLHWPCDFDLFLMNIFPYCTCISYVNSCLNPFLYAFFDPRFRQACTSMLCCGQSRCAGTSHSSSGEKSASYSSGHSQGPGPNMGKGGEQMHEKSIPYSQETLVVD

Row | Structure (SMILES) | pEC50
1 | COc1cccc(OC)c1-n1c(NS(=O)(=O)[C@@H](C)[C@H](OC)c2ncc(C)cn2)nnc1-c1cc(C(F)(F)F)cc(C(F)(F)F)c1 [Example 68.0, (1R,2S)-N-(5-(3,5-bis(trifluoromethyl)phenyl)-4-(2,6-dimethoxyphenyl)-4H-1,2,4-triazol-3-yl)-1-methoxy-1-(5-methyl-2-pyrimidinyl)-2-propanesulfonamide] | 8.33
2 | COc1cccc(OC)c1-n1c(NS(=O)(=O)[C@@H](C)[C@H](OC)c2ncc(C)cn2)nnc1-c1ccc(OC(F)(F)F)cc1 [Example 69.0, (1R,2S)-N-(4-(2,6-dimethoxyphenyl)-5-(4-(trifluoromethoxy)phenyl)-4H-1,2,4-triazol-3-yl)-1-methoxy-1-(5-methyl-2-pyrimidinyl)-2-propanesulfonamide] | 7.46
3 | COc1cccc(OC)c1-n1c(NS(=O)(=O)[C@@H](C)[C@H](OC)c2ncc(C)cn2)nnc1-c1ccc(Cl)c(Cl)c1 [Example 70.0, (1R,2S)-N-(5-(3,4-dichlorophenyl)-4-(2,6-dimethoxyphenyl)-4H-1,2,4-triazol-3-yl)-1-methoxy-1-(5-methyl-2-pyrimidinyl)-2-propanesulfonamide] | 8.42
4 | COc1cccc(OC)c1-n1c(NS(=O)(=O)[C@@H](C)[C@H](OC)c2ncc(C)cn2)nnc1-c1ccc(Cl)cc1Cl [Example 71.0, (1R,2S)-N-(5-(2,4-dichlorophenyl)-4-(2,6-dimethoxyphenyl)-4H-1,2,4-triazol-3-yl)-1-methoxy-1-(5-methyl-2-pyrimidinyl)-2-propanesulfonamide] | 6.80
5 | COc1cccc(OC)c1-n1c(NS(=O)(=O)[C@@H](C)[C@H](OC)c2ncc(C)cn2)nnc1-c1ccc(F)c(F)c1 [Example 72.0, (1R,2S)-N-(5-(3,4-difluorophenyl)-4-(2,6-dimethoxyphenyl)-4H-1,2,4-triazol-3-yl)-1-methoxy-1-(5-methyl-2-pyrimidinyl)-2-propanesulfonamide] | 8.35
6 | COc1cccc(OC)c1-n1c(NS(=O)(=O)[C@@H](C)[C@H](OC)c2ncc(C)cn2)nnc1-c1cccc(S(=O)(=O)N(C)C)c1 [Example 73.0, 3-(4-(2,6-dimethoxyphenyl)-5-((((1S,2R)-2-methoxy-1-methyl-2-(5-methyl-2-pyrimidinyl)ethyl)sulfonyl)amino)-4H-1,2,4-triazol-3-yl)-N,N-dimethylbenzenesulfonamide] | 7.51
7 | COc1cccc(OC)c1-n1c(NS(=O)(=O)[C@@H](C)[C@H](OC)c2ncc(C)cn2)nnc1-c1ccc2nc(N)sc2c1 [Example 74.0, (1R,2S)-N-(5-(2-amino-1,3-benzothiazol-6-yl)-4-(2,6-dimethoxyphenyl)-4H-1,2,4-triazol-3-yl)-1-methoxy-1-(5-methyl-2-pyrimidinyl)-2-propanesulfonamide] | 6.85
8 | COc1ccc(-c2nnc(NS(=O)(=O)[C@@H](C)[C@H](OC)c3ncc(C)cn3)n2-c2c(OC)cccc2OC)cc1C#N [Example 75.0, (1R,2S)-N-(5-(3-cyano-4-methoxyphenyl)-4-(2,6-dimethoxyphenyl)-4H-1,2,4-triazol-3-yl)-1-methoxy-1-(5-methyl-2-pyrimidinyl)-2-propanesulfonamide] | 7.89
9 | COc1cccc(-c2nnc(NS(=O)(=O)[C@@H](C)[C@H](OC)c3ncc(C)cn3)n2-c2c(OC)cccc2OC)c1 [Example 76.0, (1R,2S)-N-(4-(2,6-dimethoxyphenyl)-5-(3-methoxyphenyl)-4H-1,2,4-triazol-3-yl)-1-methoxy-1-(5-methyl-2-pyrimidinyl)-2-propanesulfonamide] | 9.29
10 | COc1cccc(OC)c1-n1c(NS(=O)(=O)[C@@H](C)[C@H](OC)c2ncc(C)cn2)nnc1-c1ccccc1 [Example 77.0, (1R,2S)-N-(4-(2,6-dimethoxyphenyl)-5-phenyl-4H-1,2,4-triazol-3-yl)-1-methoxy-1-(5-methyl-2-pyrimidinyl)-2-propanesulfonamide] | 9.00
11 | COc1cccc(OC)c1-n1c(NS(=O)(=O)[C@@H](C)[C@H](OC)c2ncc(C)cn2)nnc1-c1ccc(C)cc1 [Example 78.0, (1R,2S)-N-(4-(2,6-dimethoxyphenyl)-5-(4-methylphenyl)-4H-1,2,4-triazol-3-yl)-1-methoxy-1-(5-methyl-2-pyrimidinyl)-2-propanesulfonamide] | 8.62
12 | COc1ccc(OC)c(-c2nnc(NS(=O)(=O)[C@@H](C)[C@H](OC)c3ncc(C)cn3)n2-c2c(OC)cccc2OC)c1 [Example 79.0, (1R,2S)-N-(5-(2,5-dimethoxyphenyl)-4-(2,6-dimethoxyphenyl)-4H-1,2,4-triazol-3-yl)-1-methoxy-1-(5-methyl-2-pyrimidinyl)-2-propanesulfonamide] | 8.42
13 | COc1cccc(OC)c1-n1c(NS(=O)(=O)[C@@H](C)[C@H](OC)c2ncc(C)cn2)nnc1-c1ccc2c(c1)CCO2 [Example 80.0, (1R,2S)-N-(5-(2,3-dihydro-1-benzofuran-5-yl)-4-(2,6-dimethoxyphenyl)-4H-1,2,4-triazol-3-yl)-1-methoxy-1-(5-methyl-2-pyrimidinyl)-2-propanesulfonamide] | 8.46
14 | COc1cccc(OC)c1-n1c(NS(=O)(=O)[C@@H](C)[C@H](OC)c2ncc(C)cn2)nnc1-c1cccc(Br)c1 [Example 81.0, (1R,2S)-N-(5-(3-bromophenyl)-4-(2,6-dimethoxyphenyl)-4H-1,2,4-triazol-3-yl)-1-methoxy-1-(5-methyl-2-pyrimidinyl)-2-propanesulfonamide] | 9.57
15 | COc1cccc(OC)c1-n1c(NS(=O)(=O)[C@@H](C)[C@H](OC)c2ncc(C)cn2)nnc1-c1ccc(Oc2ccccc2)cc1 [Example 82.0, (1R,2S)-N-(4-(2,6-dimethoxyphenyl)-5-(4-phenoxyphenyl)-4H-1,2,4-triazol-3-yl)-1-methoxy-1-(5-methyl-2-pyrimidinyl)-2-propanesulfonamide] | < 5.38
16 | CCN(CC)c1ccc(-c2nnc(NS(=O)(=O)[C@@H](C)[C@H](OC)c3ncc(C)cn3)n2-c2c(OC)cccc2OC)cc1 [Example 83.0, (1R,2S)-N-(5-(4-(diethylamino)phenyl)-4-(2,6-dimethoxyphenyl)-4H-1,2,4-triazol-3-yl)-1-methoxy-1-(5-methyl-2-pyrimidinyl)-2-propanesulfonamide] | 7.05

Row | Structure (SMILES) | pEC50
17 | COc1cccc(OC)c1-n1c(NS(=O)(=O)[C@@H](C)[C@H](OC)c2ncc(C)cn2)nnc1-c1ccc2nccnc2c1 [Example 84.0, (1R,2S)-N-(4-(2,6-dimethoxyphenyl)-5-(6-quinoxalinyl)-4H-1,2,4-triazol-3-yl)-1-methoxy-1-(5-methyl-2-pyrimidinyl)-2-propanesulfonamide] | 7.26
18 | COc1cccc(OC)c1-n1c(NS(=O)(=O)[C@@H](C)[C@H](OC)c2ncc(C)cn2)nnc1-c1cccc(F)c1 [Example 85.0, (1R,2S)—N-(4-(2,6-Dimethoxyphenyl)-5-(3-fluorophenyl)-4H-1,2,4-triazol-3-yl)-1-methoxy-1-(5-methyl-2-pyrimidinyl)-2-propanesulfonamide] | 9.04
19 | COc1cccc(OC)c1-n1c(NS(=O)(=O)[C@@H](C)[C@H](OC)c2ncc(C)cn2)nnc1-c1cccc(C#N)c1 [Example 86.0, (1R,2S)-N-(5-(3-cyanophenyl)-4-(2,6-dimethoxyphenyl)-4H-1,2,4-triazol-3-yl)-1-methoxy-1-(5-methyl-2-pyrimidinyl)-2-propanesulfonamide] | 7.97
20 | COc1cccc(OC)c1-n1c(NS(=O)(=O)[C@@H](C)[C@H](OC)c2ncc(C)cn2)nnc1-c1cccc(Cl)c1 [Example 87.0, (1R,2S)-N-(5-(3-chlorophenyl)-4-(2,6-dimethoxyphenyl)-4H-1,2,4-triazol-3-yl)-1-methoxy-1-(5-methyl-2-pyrimidinyl)-2-propanesulfonamide] | 9.25
21 | COc1cccc(OC)c1-n1c(NS(=O)(=O)[C@@H](C)[C@H](OC)c2ncc(C)cn2)nnc1-c1cccc(OC(F)(F)F)c1 [Example 89.0, (1R,2S)—N-(4-(2,6-Dimethoxyphenyl)-5-(3-(trifluoromethoxy)phenyl)-4H-1,2,4-triazol-3-yl)-1-methoxy-1-(5-methyl-2-pyrimidinyl)-2-propanesulfonamide] | 9.33
22 | COc1cccc(OC)c1-n1c(NS(=O)(=O)[C@@H](C)[C@H](OC)c2ncc(C)cn2)nnc1-c1cccc2ncccc12 [Example 90.0] | 6.27
23 | COc1cccc(OC)c1-n1c(NS(=O)(=O)[C@@H](C)[C@H](OC)c2ncc(Cl)cn2)nnc1-c1cccc2cn(C)nc12 [Example 91.0] | 8.70
24 | COc1cccc(OC)c1-n1c(NS(=O)(=O)[C@@H](C)[C@H](OC)c2ncc(C)cn2)nnc1-c1cccc2cn(C)nc12 [Example 92.0] | 7.22
25 | COc1ncnc(OC)c1-n1c(NS(=O)(=O)[C@@H](C)[C@H](OC)c2ncc(C)cn2)nnc1-c1cccc2cn(C)nc12 [Example 93.0] | 7.39
26 | COc1ncnc(OC)c1-n1c(NS(=O)(=O)[C@@H](C)[C@H](OC)c2ncc(Cl)cn2)nnc1-c1cccc2cn(C)nc12 [Example 94.0] | 8.54
27 | COc1cccc(OC)c1-n1c(NS(=O)(=O)[C@@H](C)[C@H](OC)c2ncc(C)cn2)nnc1-c1cccc2cnccc12 [Example 95.0] | 6.47
28 | COCC(COC)n1c(NS(=O)(=O)[C@@H](C)[C@H](OC)c2ncc(Cl)cn2)nnc1-c1ccccc1 [Example 96.0, (1R,2S)-1-(5-Chloro-2-pyrimidinyl)-N-(4-(1,3-dimethoxy-2-propanyl)-5-phenyl-4H-1,2,4-triazol-3-yl)-1-methoxy-2-propanesulfonamide] | 7.80
29 | COCC1(n2c(NS(=O)(=O)[C@@H](C)[C@H](OC)c3ncc(Cl)cn3)nnc2-c2ccccc2)CC1 [Example 97.0, (1R,2S)-1-(5-Chloro-2-pyrimidinyl)-1-methoxy-N-(4-(1-(methoxymethyl)cyclopropyl)-5-phenyl-4H-1,2,4-triazol-3-yl)-2-propanesulfonamide] | 9.00
30 | CO[C@H](c1ncc(Cl)cn1)[C@H](C)S(=O)(=O)Nc1nnc(-c2ccccc2)n1C1(C)CC1 [Example 98.0] | 8.48
31 | Cc1cnc([C@H](OC(C)C)[C@H](C)S(=O)(=O)Nc2nnc(-c3ccccc3)n2C2(C)CC2)nc1 [Example 99.0] | 8.10
